The record followed here is paper PMC4151236, “Early identification of hERG liability in drug discovery programs by automated patch clamp” (Frontiers in Pharmacology, 2014).

This data set addresses T1, hERG (Kv11.1) (Homo sapiens, UniProt Q12809).
T1 construct: gene KCNH2
Briefly: automated whole-cell patch clamp (QPatch), CHO hERG DUO cells, three-point dose-response. It counts as cell-based.

T1 sequence (Q12809 whole entry): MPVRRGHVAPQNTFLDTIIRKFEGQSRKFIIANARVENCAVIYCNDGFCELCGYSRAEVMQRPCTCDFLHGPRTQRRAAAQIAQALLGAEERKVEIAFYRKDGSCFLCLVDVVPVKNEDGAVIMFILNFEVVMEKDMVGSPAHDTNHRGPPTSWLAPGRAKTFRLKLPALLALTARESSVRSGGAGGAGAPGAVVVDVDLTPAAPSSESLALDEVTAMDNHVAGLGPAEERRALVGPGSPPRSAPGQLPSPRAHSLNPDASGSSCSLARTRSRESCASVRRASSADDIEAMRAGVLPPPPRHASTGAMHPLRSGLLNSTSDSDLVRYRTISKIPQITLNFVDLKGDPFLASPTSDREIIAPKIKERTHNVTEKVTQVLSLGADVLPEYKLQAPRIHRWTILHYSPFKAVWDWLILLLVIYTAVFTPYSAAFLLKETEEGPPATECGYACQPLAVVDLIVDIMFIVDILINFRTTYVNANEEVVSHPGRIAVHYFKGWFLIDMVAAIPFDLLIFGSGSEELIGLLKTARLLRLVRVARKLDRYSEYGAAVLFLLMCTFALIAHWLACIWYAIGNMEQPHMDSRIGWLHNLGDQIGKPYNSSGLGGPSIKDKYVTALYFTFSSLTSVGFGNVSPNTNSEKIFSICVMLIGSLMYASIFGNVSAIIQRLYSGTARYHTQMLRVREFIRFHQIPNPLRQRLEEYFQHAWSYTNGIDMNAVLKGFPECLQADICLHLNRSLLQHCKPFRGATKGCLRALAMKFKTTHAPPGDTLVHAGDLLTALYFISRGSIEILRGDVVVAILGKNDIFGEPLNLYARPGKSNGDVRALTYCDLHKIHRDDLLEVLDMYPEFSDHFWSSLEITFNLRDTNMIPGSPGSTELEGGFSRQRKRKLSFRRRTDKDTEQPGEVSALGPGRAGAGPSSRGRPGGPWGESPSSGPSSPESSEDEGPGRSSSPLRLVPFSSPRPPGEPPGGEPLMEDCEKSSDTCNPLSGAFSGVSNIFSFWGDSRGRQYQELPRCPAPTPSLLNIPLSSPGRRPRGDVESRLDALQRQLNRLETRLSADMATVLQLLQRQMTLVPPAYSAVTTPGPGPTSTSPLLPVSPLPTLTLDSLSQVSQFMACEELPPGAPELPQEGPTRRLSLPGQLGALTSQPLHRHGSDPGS

Take `COc1cc(N)c(Cl)cc1C(=O)NC1CCN(CCCOc2ccc(F)cc2)CC1OC` (stereo not shown) [Cisapride]: the “automated whole-cell patch clamp (QPatch), CHO hERG DUO cells, three-point dose-” value is on record as “superimposed to visualize the effect of increasing concentrations of the known hERG blocker Cisapride”.
